Activity calls are given as the source filed them. The rule behind the calls is not given here.

Test [1] deals with T1, NAD-dependent protein deacetylase sirtuin-2 (Homo sapiens, UniProt Q8IXJ6).
T1 sequence (Q8IXJ6 whole entry): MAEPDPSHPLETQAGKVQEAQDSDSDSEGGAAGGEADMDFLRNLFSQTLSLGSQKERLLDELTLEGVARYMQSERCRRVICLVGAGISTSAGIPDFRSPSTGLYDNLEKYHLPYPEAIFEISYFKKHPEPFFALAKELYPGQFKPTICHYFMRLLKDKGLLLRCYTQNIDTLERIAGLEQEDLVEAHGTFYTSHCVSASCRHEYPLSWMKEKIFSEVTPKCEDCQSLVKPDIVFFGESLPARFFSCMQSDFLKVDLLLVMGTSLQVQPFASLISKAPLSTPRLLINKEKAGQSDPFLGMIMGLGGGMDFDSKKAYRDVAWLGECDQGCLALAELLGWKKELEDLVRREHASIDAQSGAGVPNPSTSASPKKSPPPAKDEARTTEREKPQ
As to the kind of experiment: Inhibition of SIRT2 (unknown origin).

Test [2] deals with T2, NAD-dependent protein deacetylase sirtuin-1 (Homo sapiens) (UniProt Q96EB6).
T2 sequence (whole entry): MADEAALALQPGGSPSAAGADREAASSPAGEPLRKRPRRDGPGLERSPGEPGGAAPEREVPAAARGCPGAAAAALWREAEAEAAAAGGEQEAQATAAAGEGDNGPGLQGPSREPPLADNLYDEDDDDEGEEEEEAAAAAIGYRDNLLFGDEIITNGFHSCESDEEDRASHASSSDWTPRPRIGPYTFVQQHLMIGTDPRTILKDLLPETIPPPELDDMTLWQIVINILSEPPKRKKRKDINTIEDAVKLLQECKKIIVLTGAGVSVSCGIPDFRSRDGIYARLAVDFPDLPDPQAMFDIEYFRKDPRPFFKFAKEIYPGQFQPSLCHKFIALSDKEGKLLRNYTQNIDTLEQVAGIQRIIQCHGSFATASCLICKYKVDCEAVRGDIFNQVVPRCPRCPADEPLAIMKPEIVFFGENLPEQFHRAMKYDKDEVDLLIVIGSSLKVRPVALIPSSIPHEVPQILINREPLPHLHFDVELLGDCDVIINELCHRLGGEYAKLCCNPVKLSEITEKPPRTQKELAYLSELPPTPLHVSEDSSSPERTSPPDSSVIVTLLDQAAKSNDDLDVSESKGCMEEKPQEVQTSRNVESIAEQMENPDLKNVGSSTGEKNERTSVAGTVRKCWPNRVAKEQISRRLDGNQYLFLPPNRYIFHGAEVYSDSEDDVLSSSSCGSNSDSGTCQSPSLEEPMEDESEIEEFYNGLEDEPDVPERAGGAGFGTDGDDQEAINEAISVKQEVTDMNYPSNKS
In words: Activation of SIRT1 (unknown origin) at 50 uM relative to control.

The target in test [3] is T3, NAD-dependent protein deacetylase sirtuin-2 (Homo sapiens) (UniProt Q8IXJ6).
T3 sequence (whole entry): T1 sequence (Q8IXJ6 whole entry)
In words: Inhibition of SIRT2 (unknown origin) at 50 uM relative to control.

Test [4] in a line: Antioxidant activity of compound at 150 to 1000 uM by DPPH assay. It is filed as functional. The conditions noted are these: dose 150-1000 µM. Background: The DPPH test is a chemical assay of radical scavenging.
Test [5] in a line: Antioxidant activity of compound at 500 uM by DPPH assay relative to control. The format is functional.
Test [6] deals with T4, NAD-dependent protein deacetylase sirtuin-1 (Homo sapiens, UniProt Q96EB6).
T4 sequence (Q96EB6 whole entry): T2 sequence (whole entry)
In words: Inhibition of AMC-conjugated recombinant human SIRT1 (379 to 382 residues) using […] substrate incubated for 45 mins by fluorescence based assay.

Test [7] concerns the target T5, NAD-dependent protein deacetylase sirtuin-3, mitochondrial (Homo sapiens, UniProt Q9NTG7).
T5 sequence (Q9NTG7 whole entry): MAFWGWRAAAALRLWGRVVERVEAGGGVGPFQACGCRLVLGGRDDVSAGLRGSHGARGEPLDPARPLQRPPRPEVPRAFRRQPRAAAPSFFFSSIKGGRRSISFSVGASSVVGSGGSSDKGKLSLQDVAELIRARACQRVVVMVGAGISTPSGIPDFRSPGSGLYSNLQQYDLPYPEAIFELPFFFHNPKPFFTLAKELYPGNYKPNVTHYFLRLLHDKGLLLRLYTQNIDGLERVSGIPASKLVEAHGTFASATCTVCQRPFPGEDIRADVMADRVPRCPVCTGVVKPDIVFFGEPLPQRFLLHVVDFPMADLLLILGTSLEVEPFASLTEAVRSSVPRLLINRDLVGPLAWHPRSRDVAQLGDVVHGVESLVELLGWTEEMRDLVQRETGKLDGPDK
In words: Inhibition of AMC-conjugated recombinant human SIRT3 ( 317 to 320 residues) using […] substrate incubated for 45 mins by fluorescence based assay.

Test [8] has as its target T4, NAD-dependent protein deacetylase sirtuin-1. As to the kind of experiment: Activation of N-terminal His-tagged recombinant human SIRT1 (193 to end residues) expressed in baculovirus infected Sf9 insect cells incubated for 15 to 45 mins by luminescence based assay.

Consider `Cc1ccc(C(=O)Nc2ccc(S(=O)(=O)O)c3cc(S(=O)(=O)O)cc(S(=O)(=O)O)c23)cc1NC(=O)c1cccc(NC(=O)Nc2cccc(C(=O)Nc3cc(C(=O)Nc4ccc(S(=O)(=O)O)c5cc(S(=O)(=O)O)cc(S(=O)(=O)O)c45)ccc3C)c2)c1` [SURAMIN], for which, in test [1], half-maximal inhibition (IC50) required 24 µM.

For `COc1ccccc1N1CCN(Cc2ccc3oc4c(Cl)cccc4c(=O)c3c2)CC1`, the Activity in test [2] was -17.1%. The inhibition – broadly, the drop in the measured response relative to a control, in per cent – in test [3] stood at 49.5%. Besides, the outcome in test [4] was inactive.

Consider `COc1ccccc1CNCc1ccc2oc3c(Cl)cccc3c(=O)c2c1`, for which the Activity in test [2] is -10.3%. In test [3], this compound yielded an inhibition of 82.1%. In test [4], the outcome was inactive.

Consider `COc1ccc(CNCc2ccc3oc4c(Cl)cccc4c(=O)c3c2)cc1OC`, for which the Activity in test [2] is -19.5%. In test [3], this compound yielded an inhibition of 82.7%. Also, the result in test [4] was inactive.

For `COc1cccc(N2CCN(Cc3ccc4oc5c(Cl)cccc5c(=O)c4c3)CC2)c1`, the Activity in test [2] was -117%; in test [5], 17.9%. The same compound returned an inhibition in test [3] of 48.5%. Further, the outcome in test [4] was inactive.

Take `COc1ccc(OC)c(CN2CCN(Cc3ccc4oc5c(Cl)cccc5c(=O)c4c3)CC2)c1`: the Activity in test [2] was -12.4%. Moreover, the inhibition in test [3] was 55.9%.

Consider `COc1ccccc1CCNCc1ccc2oc3c(Cl)cccc3c(=O)c2c1`, for which, in test [2], the Activity was -22.1%. The compound also yielded an inhibition in test [3] of 93.2%. The result in test [4] was inactive.

As for `Oc1ccc(/C=C/c2cc(O)cc(O)c2)cc1`, the Activity in test [2] (filed as activator) came out at 96.6%. The compound further yielded an inhibition in test [3] of 83%.

With `CC(C)=CCc1c(O)cc2oc3cc(O)c(O)c(CC=C(C)C)c3c(=O)c2c1O`, the figures for the half-inhibitory concentration (IC50) in test [6] and in test [7] were 22.4 µM and 26.8 µM, respectively.

`CC(C)=CCc1c(O)c(CC=C(C)C)c2oc3c(O)ccc(O)c3c(=O)c2c1O` [GARTANIN]: in test [8], the EC50 (usually the concentration at which the effect is half-maximal) was determined as 1.79 µM.

Values taken from ChEMBL document CHEMBL5625260, “Novel xanthone derivatives as potent sirtuin 2 inhibitors” (Bioorg Med Chem Lett, 2024).
